Data: ChEMBL document CHEMBL2074484, “Molecular cloning and characterization of two novel human renal organic anion transporters (hOAT1 and hOAT3)” (Biochem Biophys Res Commun, 1999)
Each block holds one compound with its values, some of them ahead of it.

Legend:
Format in all cases: functional, cell-based
Conditions in all cases: oocyte
[1] = target: T1, Organic anion transporter 3 (Homo sapiens, UniProt Q8TCC7); assay: (§1) TP_TRANSPORTER: uptake in Xenopus laevis oocytes
T1 sequence (Q8TCC7 whole entry): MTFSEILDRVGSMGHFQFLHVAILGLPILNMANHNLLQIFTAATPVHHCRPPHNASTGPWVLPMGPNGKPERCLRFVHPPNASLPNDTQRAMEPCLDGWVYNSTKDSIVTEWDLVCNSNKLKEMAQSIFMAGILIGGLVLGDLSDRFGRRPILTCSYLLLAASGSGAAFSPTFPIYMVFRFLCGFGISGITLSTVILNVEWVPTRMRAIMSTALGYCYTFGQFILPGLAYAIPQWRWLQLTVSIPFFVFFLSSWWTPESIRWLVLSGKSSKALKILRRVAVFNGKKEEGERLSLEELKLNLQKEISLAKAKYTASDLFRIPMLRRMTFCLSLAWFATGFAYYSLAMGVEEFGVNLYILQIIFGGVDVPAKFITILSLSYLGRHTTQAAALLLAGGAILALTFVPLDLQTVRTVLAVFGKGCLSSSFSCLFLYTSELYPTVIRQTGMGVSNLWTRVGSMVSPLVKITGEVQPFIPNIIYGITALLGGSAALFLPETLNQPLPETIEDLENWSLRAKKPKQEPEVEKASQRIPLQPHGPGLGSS

[2] = target: T2, Solute carrier family 22 member 6 (Homo sapiens, UniProt Q4U2R8); assay: TP_TRANSPORTER: inhibition of PAH uptake (PAH: 1 uM, Bumetamide: 100 uM) in Xenopus laevis oocytes
T2 sequence (Q4U2R8 whole entry): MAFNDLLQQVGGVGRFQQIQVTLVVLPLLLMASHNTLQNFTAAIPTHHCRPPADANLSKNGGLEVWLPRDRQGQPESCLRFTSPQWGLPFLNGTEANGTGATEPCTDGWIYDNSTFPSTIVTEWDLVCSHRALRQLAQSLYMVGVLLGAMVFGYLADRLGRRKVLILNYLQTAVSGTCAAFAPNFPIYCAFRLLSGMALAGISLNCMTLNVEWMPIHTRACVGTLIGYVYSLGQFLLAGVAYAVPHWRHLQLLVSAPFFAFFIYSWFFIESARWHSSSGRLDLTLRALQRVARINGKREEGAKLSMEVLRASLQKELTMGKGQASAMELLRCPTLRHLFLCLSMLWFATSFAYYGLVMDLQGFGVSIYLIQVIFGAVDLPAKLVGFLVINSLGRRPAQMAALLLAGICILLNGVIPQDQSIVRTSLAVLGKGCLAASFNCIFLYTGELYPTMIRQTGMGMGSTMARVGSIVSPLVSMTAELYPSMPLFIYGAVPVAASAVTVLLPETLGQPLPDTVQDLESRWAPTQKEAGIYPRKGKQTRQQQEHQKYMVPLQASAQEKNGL

[3] = target: T2, Solute carrier family 22 member 6; assay: TP_TRANSPORTER: inhibition of PAH uptake (PAH: 1 uM, Hydrochlorothiazide: 100 uM) in Xenopus laevis oocytes
[4] = target: T2, Solute carrier family 22 member 6; assay: TP_TRANSPORTER: inhibition of PAH uptake (PAH: 1 uM, Losartan: 100 uM) in Xenopus laevis oocytes
[5] = target: T2, Solute carrier family 22 member 6; assay: as §1
[6] = target: T2, Solute carrier family 22 member 6; assay: TP_TRANSPORTER: inhibition of PAH uptake (PAH: 1 uM, Urate: 100 uM) in Xenopus laevis oocytes

Compound: Nc1ccc(C(=O)NCC(=O)O)cc1 [AMINOHIPPURIC ACID]
Activity [1]: is not a substrate [-]

Compound: CCCCNc1cc(C(=O)O)cc(S(N)(=O)=O)c1Oc1ccccc1 [BUMETANIDE]
Activity [2]: inhibitor [(at a rough estimate) 45 % of control]

Compound: NS(=O)(=O)c1cc2c(cc1Cl)NCNS2(=O)=O [HYDROCHLOROTHIAZIDE]
Activity [3]: is not an inhibitor [-]

Compound: CCCCc1nc(Cl)c(CO)n1Cc1ccc(-c2ccccc2-c2nn[nH]n2)cc1 [LOSARTAN]
Activity [4]: inhibitor [(at a rough estimate) 25 % of control]

Other lines, results leading:

Activity [1]: is not a substrate [-]
Compound: O=C([O-])C(=O)[O-].[Na+].[Na+] [SODIUM OXALATE]

Activity [1]: is not a substrate [-]
Compound: CC[N+](CC)(CC)CC [TETRYLAMMONIUM]

Activity [1]: is not a substrate [-]
Activity [5]: is not a substrate [-]
Activity [6]: is not an inhibitor [-]
Compound: O=c1[nH]c(=O)c2[nH]c(=O)[nH]c2[nH]1 [URIC ACID]
